Here are results for twelve molecules from patent US20040082635A1, “Fused cyclic compounds and medicinal use thereof” (priority 2001, published 2004).

Molecules are shown by their SMILES. Counter-ions that a name gives are not always drawn.

The IC50 is the concentration needed to halve the response being measured.

The target of this assay is T1, HCV polymerase (Hepatitis C virus genotype 1b, UniProt P26663).
T1 construct: a region encoding NS5B (591 amino acids; J Virol 1991 Mar, 65(3), 1105-13) was amplified by PCR; 6 His (N); made in house; host or cells: Escherichia coli
T1 sequence (P26663 2420-3010): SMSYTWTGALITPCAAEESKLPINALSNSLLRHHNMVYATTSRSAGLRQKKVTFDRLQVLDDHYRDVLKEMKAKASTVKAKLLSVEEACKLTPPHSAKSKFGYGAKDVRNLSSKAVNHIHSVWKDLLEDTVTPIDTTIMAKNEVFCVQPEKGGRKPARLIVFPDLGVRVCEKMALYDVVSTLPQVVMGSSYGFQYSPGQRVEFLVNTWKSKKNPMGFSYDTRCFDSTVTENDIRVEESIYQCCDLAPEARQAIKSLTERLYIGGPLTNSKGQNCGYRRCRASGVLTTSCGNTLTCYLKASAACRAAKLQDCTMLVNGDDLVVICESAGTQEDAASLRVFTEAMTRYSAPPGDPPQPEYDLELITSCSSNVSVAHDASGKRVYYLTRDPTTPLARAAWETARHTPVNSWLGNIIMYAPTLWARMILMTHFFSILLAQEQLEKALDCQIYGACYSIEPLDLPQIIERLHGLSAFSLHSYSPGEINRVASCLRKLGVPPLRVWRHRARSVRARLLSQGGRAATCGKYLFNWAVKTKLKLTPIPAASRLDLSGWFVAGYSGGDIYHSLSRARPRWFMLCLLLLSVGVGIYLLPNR
Kind of assay: biochemical. Particulars: read-out: HCV polymerase inhibitory activity IC50.

As to `O=C(O)c1ccc2c(c1)nc(-c1ccc(OCc3cc(C4=NCCN4)ccc3-c3ccc(Cl)cc3)cc1F)n2C1CCCCC1` [Example 422, 2-{4-[2-(4-chlorophenyl)-5-(2-imidazolin-2-yl)benzyloxy]-2-fluorophenyl}-1-cyclohexylbenzimidazole-5-carboxylic acid dihydrochloride], the half-inhibitory concentration (IC50) worked out at 17 nM.
With `O=C(O)c1ccc(C(Oc2ccc(-c3nc4cc(C(=O)O)ccc4n3C3CCCCC3)c(F)c2)c2ccc(C(=O)O)cc2)cc1` [Example 312, 2-{4-[bis(4-carboxyphenyl)methoxy]-2-fluorophenyl}-1-cyclohexylbenzimidazole-5-carboxylic acid] the figure was 23 nM; with `CC(C)NC(=O)c1ccc(-c2ccc(F)c(F)c2)c(COc2ccc(-c3nc4cc(C(=O)O)ccc4n3C3CCCCC3)c(F)c2)c1` [Example 396, 2-{4-[2-(3,4-difluorophenyl)-5-(isopropylcarbamoyl)benzyloxy]-2-fluorophenyl}-1-cyclohexylbenzimidazole-5-carboxylic acid], 25 nM.
In the case of `CCNC(=O)Nc1ccc(-c2ccc(Cl)cc2)c(COc2ccc(-c3nc4cc(C(=O)O)ccc4n3C3CCCCC3)c(F)c2)c1` [Example 394, 2-{4-[2-(4-chlorophenyl)-5-{(ethylcarbamoyl)amino}benzyloxy]-2-fluorophenyl}-1-cyclohexylbenzimidazole-5-carboxylic acid hydrochloride], the IC50 was 19 nM.
With `O=C(O)c1ccc2c(c1)nc(-c1ccc(OCc3ccccc3-c3ccc(C(F)(F)F)cc3)cc1F)n2C1CCCCC1` [Example 131, 1-cyclohexyl-2-{2-fluoro-4-[2-(4-trifluoromethylphenyl)-benzyloxy]phenyl}benzimidazole-5-carboxylic acid] the figure was 46 nM; with `O=C(O)COc1cccc(Oc2ccc(-c3nc4cc(C(=O)O)ccc4n3C3CCCCC3)cc2)c1` [Example 141, 2-[4-(3-carboxymethyloxyphenoxy)phenyl]-1-cyclohexylbenzimidazole-5-carboxylic acid], 430 nM.
The figure for `O=C(O)c1ccc2c(c1)nc(-c1ccc(OCc3cc(N4CCCS4(=O)=O)c(F)cc3-c3ccc(Cl)cc3)cc1F)n2C1CCCCC1` [Example 449, 2-[4-{2-(4-chlorophenyl)-4-fluoro-5-(1,1-dioxoisothiazolidin-2-yl)benzyloxy}-2-fluorophenyl]-1-cyclohexylbenzimidazole-5-carboxylic acid hydrochloride] is 25 nM; for `CC(=O)Nc1ccc(-c2ccc(Cl)cc2)c(COc2ccc(-c3nc4cc(C(=O)O)ccc4n3C3CCCCC3)c(F)c2)c1` [Example 458, 2-[4-{2-(4-chlorophenyl)-5-(acetylamino)benzyloxy}-2-fluorophenyl]-1-cyclohexylbenzimidazole-5-carboxylic acid hydrochloride] it is 15 nM; for `O=C(O)c1ccc2c(c1)nc(-c1ccc(OC(C(=O)O)(c3ccccc3)c3ccccc3)cc1)n2C1CCCCC1` [Example 181, 2-[4-(carboxydiphenylmethoxy)phenyl]-1-cyclohexylbenzimidazole-5-carboxylic acid] it is 710 nM.
The figure for `O=C(O)c1ccc2c(c1)nc(-c1ccc(OCCc3cccc4ccccc34)cc1)n2C1CCCCC1` [Example 103, 1-cyclohexyl-2-{4-[2-(1-naphthyl)ethoxy]phenyl}benzimidazole-5-carboxylic acid] is 170 nM.
On to `O=C(O)c1ccc2c(c1)nc(-c1ccc(OCc3cc(C(=O)NC4CC4)ccc3-c3ccc(Cl)cc3)cc1F)n2C1CCCCC1` [Example 377, 2-{4-[2-(4-chlorophenyl)-5-(cyclopropylcarbamoyl)benzyloxy]-2-fluorophenyl}-1-cyclohexylbenzimidazole-5-carboxylic acid hydrochloride], for which the IC50 came to 12 nM.
With `O=C(O)c1ccc2c(c1)nc(-c1ccc(COc3ccccc3-c3ccccc3)o1)n2C1CCCCC1` [Example 253, 2-[2-(2-biphenylyloxymethyl)-5-furyl]-1-cyclohexylbenzimidazole-5-carboxylic acid] the figure was 650 nM.
